Laboratory results: ChEMBL document CHEMBL3817791, “Discovery of 4-(4-aminopyrazolo[1,5-a][1,3,5]triazin-8-yl)benzamides as novel, highly potent and selective, orally bioavailable inhibitors of Tyrosine Threonine Kinase, TTK” (Bioorg Med Chem Lett, 2016)

What was measured:
[1] = AUC (0 to last) in CD-1 nude mouse at 70 mg/ml, po; format: ADME, organism-based; design: dose 70 mg/ml, time 0 - last, route oral; conditions: in vivo
[2] = Protein binding in mouse plasma; format: ADME, cell-free; conditions: read-out: PPB (converted)
Cytochrome P450 3A4 = Cytochrome P450 3A4 (Homo sapiens, UniProt P08684); assay: Inhibition of CYP3A4 (unknown origin); format: ADME
[3] = AUC (0 to last) in CD-1 nude mouse at 100 mg/ml, po; format: ADME, organism-based; design: dose 100 mg/ml, route oral, time 0 - last; conditions: in vivo
MDA-MB-231 = assay: Antiproliferative activity against human MDA-MB-231 cells; format: functional
[4] = Volume of distribution at steady state in Sprague-Dawley rat at 1 mg/ml, iv; format: ADME, organism-based; conditions: in vivo, read-out: Vdss
[5] = Cmax in CD-1 nude mouse at 100 mg/ml, po; format: ADME, organism-based; design: dose 100 mg/ml, route oral; conditions: in vivo
[6] = Half life in Sprague-Dawley rat at 1 mg/ml, iv; format: ADME, organism-based; conditions: in vivo
[7] = Antiproliferative activity against human OVCAR3 cells; format: functional; conditions: OVCAR-3
[8] = Half life in rat microsomes; format: ADME, Microsome
[9] = AUC (0 to last) in CD-1 nude mouse at 10 mg/ml, po; format: ADME, organism-based; design: dose 10 mg/ml, route oral, time 0 - last; conditions: in vivo
[10] = AUC (0 to infinity) in Sprague-Dawley rat at 5 mg/ml, iv; format: ADME, organism-based; design: dose 5 mg/ml, route intravenous, time infinity; conditions: in vivo
[11] = molecular target: T1, Dual specificity protein kinase TTK (Homo sapiens, UniProt P33981); assay: Competitive inhibition of TTK (unknown origin) by double reciprocal plot analysis in presence of ATP
T1 sequence (P33981 whole entry): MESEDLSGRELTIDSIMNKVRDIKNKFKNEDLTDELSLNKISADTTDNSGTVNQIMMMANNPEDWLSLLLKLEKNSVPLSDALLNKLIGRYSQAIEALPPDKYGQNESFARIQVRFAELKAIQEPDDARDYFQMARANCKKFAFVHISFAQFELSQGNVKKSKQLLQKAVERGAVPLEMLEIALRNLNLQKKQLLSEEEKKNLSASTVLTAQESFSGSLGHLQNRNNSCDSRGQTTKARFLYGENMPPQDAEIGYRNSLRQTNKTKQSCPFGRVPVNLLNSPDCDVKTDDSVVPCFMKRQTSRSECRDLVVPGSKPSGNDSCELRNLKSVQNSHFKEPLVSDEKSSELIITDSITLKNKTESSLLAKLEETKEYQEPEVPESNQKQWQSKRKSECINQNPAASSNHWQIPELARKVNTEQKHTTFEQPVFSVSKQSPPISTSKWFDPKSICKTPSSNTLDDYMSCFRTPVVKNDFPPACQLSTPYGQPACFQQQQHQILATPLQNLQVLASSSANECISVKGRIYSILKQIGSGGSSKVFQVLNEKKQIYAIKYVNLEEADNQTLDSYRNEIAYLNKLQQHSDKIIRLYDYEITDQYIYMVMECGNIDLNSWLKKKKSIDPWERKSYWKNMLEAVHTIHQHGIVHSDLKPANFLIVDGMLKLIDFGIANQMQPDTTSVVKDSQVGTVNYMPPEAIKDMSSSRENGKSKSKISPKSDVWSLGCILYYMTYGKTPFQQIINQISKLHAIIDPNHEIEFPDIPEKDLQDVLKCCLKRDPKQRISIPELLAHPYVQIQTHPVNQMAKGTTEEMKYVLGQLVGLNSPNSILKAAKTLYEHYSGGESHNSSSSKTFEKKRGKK

[12] = Half life in human microsomes; format: ADME, Microsome
[13] = Half life in Sprague-Dawley rat at 5 mg/ml, iv; format: ADME, organism-based; conditions: in vivo
[14] = Cmax in CD-1 nude mouse at 70 mg/ml, po; format: ADME, organism-based; design: dose 70 mg/ml, route oral; conditions: in vivo

Sequence of Cytochrome P450 3A4 (P08684 whole entry): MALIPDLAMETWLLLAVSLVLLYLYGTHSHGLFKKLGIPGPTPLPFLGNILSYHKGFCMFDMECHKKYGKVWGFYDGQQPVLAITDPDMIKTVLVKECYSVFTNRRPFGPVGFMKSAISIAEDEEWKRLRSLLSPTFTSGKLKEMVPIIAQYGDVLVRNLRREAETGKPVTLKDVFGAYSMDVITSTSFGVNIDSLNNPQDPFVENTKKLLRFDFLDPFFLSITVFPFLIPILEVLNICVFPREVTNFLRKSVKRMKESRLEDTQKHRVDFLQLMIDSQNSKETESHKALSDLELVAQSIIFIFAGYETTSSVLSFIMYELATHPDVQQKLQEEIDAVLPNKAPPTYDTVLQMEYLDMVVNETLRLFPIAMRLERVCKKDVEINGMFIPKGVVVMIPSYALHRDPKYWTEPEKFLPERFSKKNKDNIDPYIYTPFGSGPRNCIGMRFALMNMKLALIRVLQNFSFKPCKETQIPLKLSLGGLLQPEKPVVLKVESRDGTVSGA

With `Cc1cc(-c2cnn3c(NCC4CCOCC4)nc(Oc4ccccc4)nc23)ccc1C(=O)NC1CC1` as the molecule, how does the AUC(0-t) [1] read?
The AUC(0-t) was 53000 ng·h/mL.

What about the fraction unbound [2] of the same molecule?
Its fraction unbound is 0.016.

And the IC50 (Cytochrome P450 3A4)?
The IC50 was 800 nM.

And the AUC(0-t) [3]?
The AUC(0-t) was 25000 ng·h/mL.

What about the GI50 (MDA-MB-231) of the same molecule?
Its GI50 is 32 nM.

And the Vd [4]?
The Vd was 2.8 L.

And the Cmax [5]?
The Cmax was 2900 ng/mL.

What about the half-life [6] of the same molecule?
The half-life was 1.53 h.

And the GI50 [7]?
Its GI50 is 190 nM.

What about the half-life [8] of the same molecule?
The half-life was over 1 h.

What about the AUC(0-t) [9] of the same molecule?
Its AUC(0-t) is 1530 ng·h/mL.

And the AUC(0-inf) [10]?
Its AUC(0-inf) is 4230 ng·h/mL.

And the Ki [11]?
The Ki was 0.77 nM.

What about the half-life [12] of the same molecule?
The half-life was over 1 h.

What about the half-life [13] of the same molecule?
The half-life was 1.7 h.

What about the Cmax [14] of the same molecule?
The Cmax was 7700 ng/mL.
